# Reference: PubChem BioAssay (NCI)
# “And” between values parts separate entries of the source, which are not always exact repeats. Equal entries are not always repeated.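 Assay format: 96-well plates, 48-hour exposure. Abbreviation: GI50, concentration required for 50% inhibition of growth. Definition used: TGI = concentration required for complete inhibition of growth.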
# Tests used:
# Assay in all cases: growth of human tumour cells (NCI), 48 h
# ACHN renal = test system: ACHN renal
# NCI-H522 lung = test system: NCI-H522 lung
# HS 578T breast = test system: HS 578T breast
# PC-3 prostate = test system: PC-3 prostate
# HT29 colon = test system: HT29 colon
# LOX IMVI melanoma = test system: LOX IMVI melanoma
# T-47D breast = test system: T-47D breast
# NCI-H460 lung = test system: NCI-H460 lung
# SW-620 colon = test system: SW-620 colon
# HOP-92 NSCLC = test system: HOP-92 NSCLC
# RXF 393 renal = test system: RXF 393 renal
# SF-268 CNS = test system: SF-268 CNS
# 786-0 renal = test system: 786-0 renal
Structure (SMILES),TGI (ACHN renal),TGI (NCI-H522 lung),TGI (HS 578T breast),TGI (PC-3 prostate),TGI (HT29 colon),TGI (LOX IMVI melanoma),TGI (T-47D breast),TGI (NCI-H460 lung),TGI (SW-620 colon),TGI (HOP-92 NSCLC),TGI (RXF 393 renal),TGI (SF-268 CNS),TGI (786-0 renal),GI50 (NCI-H522 lung),GI50 (HT29 colon)
CC1=NC2=Nc3nc(C)cc[n+]3CN2C=C1,> 100 µM,> 100 µM,> 100 µM,> 100 µM,> 100 µM,> 100 µM,> 100 µM,> 100 µM,> 100 µM,> 100 µM,> 100 µM,> 100 µM,> 100 µM,–,–
CC(C)(C)OC(=O)NC1CC2(C=C(Br)C(=O)C(Br)=C2)OC1=O (centres undefined),10.8 µM,3.92 µM,51.3 µM,27.3 µM,18.6 µM,33.4 µM,6.39 µM,38.5 µM,5.79 µM,30.1 µM,11.8 µM,32.2 µM,7.5 µM,–,–
c1cc2c(cc1NC1=NCCO1)OCO2,> 100 µM,> 100 µM,> 100 µM,> 100 µM,> 100 µM,> 100 µM,> 100 µM,> 100 µM,> 100 µM,> 100 µM,> 100 µM,> 100 µM,> 100 µM,–,–
CC(C)(C)OC(=O)N(CCCCNC(=O)OCc1ccccc1)CCCNC(=O)OCc1ccccc1,22.6 µM,19.4 µM,> 100 µM,> 100 µM,> 100 µM,–,> 100 µM,> 100 µM,> 100 µM,99.1 µM,> 100 µM,> 100 µM,> 100 µM,–,–
O=S(=O)(Nc1nc2ccccc2nc1Nc1ccc2ccccc2c1)c1ccccc1,> 100 µM,39.6 µM,> 74.5 µM,> 37.2 µM,25.1 µM,48.8 µM,> 100 µM,28.8 µM,> 100 µM,51.3 µM,86.1 µM,> 67.7 µM,> 100 µM,–,–
COc1c(/C=C/C(C)(C)O)cc(C2CC(=O)c3c(O)cc(O)cc3O2)cc1CC=C(C)C (centres undefined),14.3 µM,18.6 µM,24.9 µM,16.3 µM,16.7 µM,11.6 µM,33.2 µM,16.5 µM,> 50 µM,17.8 µM,15.3 µM,19.2 µM,18.1 µM,–,–
O=[N+]([O-])c1ccc2c(c1)N([O-])C1(CCCCC1)[N+]2=O,33.8 µM,–,47.9 µM,31.2 µM,43.3 µM,42.2 µM,64.7 µM,37 µM,56 µM,29.1 µM,32.4 µM,69.4 µM,24.6 µM,–,–
O=C(O)C(O)C(O)C(=O)O (centres undefined),> 100 µM,> 100 µM,> 100 µM,> 100 µM,> 100 µM,> 100 µM,> 100 µM,> 100 µM,> 100 µM,> 100 µM,> 100 µM,> 100 µM,> 100 µM,–,–
O=C(OC1C2OC(=O)c3cc(O)c(O)c(O)c3Oc3cc4c(c(O)c3O)-c3c(cc(O)c(O)c3O)C(=O)OCC3OC(O)C(OC(=O)c5cc(O)c(O)c(O)c5Oc5cc6c(c(O)c5O)-c5c(cc(O)c(O)c5O)C(=O)OC1C(COC6=O)OC2O)C(OC(=O)c1cc(O)c(O)c(O)c1)C3OC4=O)c1cc(O)c(O)c(O)c1 (centres undefined),> 100 µM,–,63.8 µM,87.7 µM,51.6 µM,59.7 µM,> 100 µM,14.3 µM,40.5 µM,58.5 µM,52.5 µM,> 100 µM,47.1 µM,–,–
Cc1nc(C)c(N2CCN(S(=O)(=O)N(Cc3ccccc3)Cc3ccccc3)CC2)c(=O)[nH]1,> 73 µM,65.1 µM,38.8 µM,> 100 µM,> 100 µM,> 100 µM,> 85.7 µM,> 100 µM,> 100 µM,> 78.1 µM,38 µM,> 75 µM,23.5 µM,–,–
Clc1ccc(C(c2ccccc2Cl)C(Cl)Cl)cc1 (centres undefined),38.8 µM,34.3 µM,37.1 µM,35.5 µM,33.7 µM,40.2 µM,33.3 µM,39.3 µM,39.2 µM,32.1 µM,30.9 µM,37.6 µM,36.7 µM,–,–
CCCC(CCC(N)=O)(CCC(N)=O)[N+](=O)[O-],> 100 µM,> 100 µM,> 100 µM,> 100 µM,> 100 µM,–,> 100 µM,> 100 µM,> 100 µM,> 100 µM,> 100 µM,> 100 µM,> 100 µM,–,–
O=C(O)CCC(=O)c1ccc2c(c1)C(C(=O)O)CC2 (centres undefined),> 100 µM,> 100 µM,> 100 µM,> 100 µM,> 100 µM,> 100 µM,> 100 µM,> 100 µM,> 100 µM,> 100 µM,23.1 µM,> 100 µM,> 100 µM,–,–
CN1C/C(=C\c2cccs2)C(O)/C(=C/c2cccs2)C1 (centres undefined),> 100 µM,> 100 µM,> 100 µM,> 100 µM,> 100 µM,> 100 µM,74.2 µM,> 100 µM,> 100 µM,> 100 µM,> 100 µM,> 100 µM,> 100 µM,–,–
CCN(CC)CCCNc1ccc2nc(C)n3c4ccc(O)cc4c(=O)c1c23,15.2 µM,14.3 µM,29 µM,12.6 µM,14.2 µM,3.71 µM,31.4 µM,12.1 µM,14.9 µM,11.4 µM,15 µM,17.2 µM,16.8 µM,–,–
O=C1C(Br)=C(c2ccccc2)O/C1=C/C(=O)c1ccc(Br)cc1,> 100 µM,39.1 µM,> 100 µM,53.3 µM,> 100 µM,–,> 100 µM,> 100 µM,47.3 µM,> 100 µM,46.9 µM,> 100 µM,47 µM,–,–
O=C(/C=C/c1cccc(Oc2ccccc2)c1)NCc1ccc(C(=O)NCc2ccccc2)cc1,> 100 µM,> 100 µM,> 100 µM,> 100 µM,> 100 µM,> 100 µM,> 100 µM,> 100 µM,> 100 µM,> 100 µM,41 µM,> 100 µM,> 100 µM,–,–
NC(N)=NC(N)=Nc1ccc(S(=O)(=O)O)cc1,> 100 µM,> 100 µM,> 100 µM,> 100 µM,> 100 µM,> 100 µM,> 100 µM,> 100 µM,> 100 µM,> 100 µM,> 100 µM,> 100 µM,> 100 µM,–,–

Structure (SMILES),TGI (ACHN renal),TGI (NCI-H522 lung),TGI (HS 578T breast),TGI (PC-3 prostate),TGI (HT29 colon),TGI (LOX IMVI melanoma),TGI (T-47D breast),TGI (NCI-H460 lung),TGI (SW-620 colon),TGI (HOP-92 NSCLC),TGI (RXF 393 renal),TGI (SF-268 CNS),TGI (786-0 renal),GI50 (NCI-H522 lung),GI50 (HT29 colon)
Cn1c2ccccc2c2c3c(c4c5ccccc5n(C)c4c21)C(=O)NC3=O,–,> 86.7 µM,> 72.6 µM,> 77.5 µM,> 100 µM,> 100 µM,> 100 µM,70.1 µM,> 100 µM,> 100 µM,> 22.1 µM,> 100 µM,27.5 µM,–,–
Cc1cc2/c(=C\c3ccc(N(C)C)cc3)c3ccccc3n2[n+]1C,10 µM,1.99 µM,8.95 µM,2.38 µM,9.03 µM,2.59 µM,3.76 µM,2.02 µM,> 32 µM,3.52 µM,10.4 µM,6.57 µM,8.77 µM,–,–
C/C(=N\N=C(\N)SB(F)F)c1ccc2ccccc2c1,> 100 µM,72 µM,> 100 µM,> 100 µM,> 100 µM,> 100 µM,> 100 µM,> 100 µM,> 100 µM,> 100 µM,> 100 µM,> 100 µM,> 100 µM,–,–
O=C(O)CCS/C(=C\C(SCCC(=O)O)c1ccc(Cl)cc1)c1ccc(Cl)cc1 (centres undefined),> 100 µM,> 100 µM,> 100 µM,> 100 µM,> 100 µM,63.1 µM,> 100 µM,> 100 µM,> 100 µM,> 100 µM,> 100 µM,> 100 µM,> 100 µM,–,–
Nc1[nH]nc(Nc2ccc(Cl)cc2)c1P(=O)(c1ccccc1)c1ccccc1,> 100 µM,48.5 µM,37.2 µM,61.1 µM,65.2 µM,> 100 µM,> 100 µM,> 100 µM,> 100 µM,70.8 µM,53.9 µM,33.8 µM,–,–,–
NC(=O)N/N=C(/CC1C(=O)Oc2ccccc21)c1ccccc1O (centres undefined),> 100 µM,> 100 µM,> 100 µM,> 100 µM,> 100 µM,41.5 µM,> 100 µM,> 100 µM,> 100 µM,> 100 µM,> 100 µM,> 100 µM,> 100 µM,–,–
COc1ccc2nc(-c3ccccc3)cc(OCC(=O)O)c2c1,> 100 µM,> 100 µM,> 100 µM,> 100 µM,> 100 µM,> 100 µM,> 100 µM,> 100 µM,> 100 µM,> 100 µM,–,> 100 µM,> 100 µM,–,–
CS(=O)(=O)OCCN(CCOS(C)(=O)=O)c1ccc(C=Nc2cccc(Cl)c2)cc1,0.651 µM,2.84 µM,98.9 µM,> 100 µM,33.6 µM,15.2 µM,> 100 µM,> 33.4 µM,> 100 µM,> 92.7 µM,> 100 µM,> 100 µM,> 100 µM,–,–
Cc1c2c3ccccc3nc-2n(C)c2ccccc12,6.23 µM,–,20 µM,7.5 µM,11.6 µM,–,41.3 µM,2.85 µM,12.9 µM,13.1 µM,6.01 µM,19.1 µM,13 µM,–,–
O=S(=O)(O)c1cc(N=Nc2c(O)ccc3ccccc23)ccc1/C=C/c1ccc(N=Nc2c(O)ccc3ccccc23)cc1S(=O)(=O)O,> 100 µM,> 100 µM,> 100 µM,> 100 µM,> 100 µM,–,> 100 µM,–,> 100 µM,> 100 µM,> 100 µM,> 100 µM,> 100 µM,–,–
C=C(C(=O)O)[C@@H]1C[C@@H]2O[C@H]1[C@@H](O)[C@@H](C)CCCC(C)=CCC[C@@]2(C)O,> 100 µM,> 100 µM,> 100 µM,> 100 µM,> 100 µM,> 100 µM,> 100 µM,> 100 µM,> 100 µM,> 100 µM,> 100 µM,> 100 µM,> 100 µM,29.3 µM and 67.6 µM,32.4 µM and > 100 µM
Nc1nc(Cl)c(N)c(NCC2(CO)CC2)n1,> 100 µM,> 100 µM,> 100 µM,> 100 µM,> 100 µM,> 100 µM,> 100 µM,> 100 µM,> 100 µM,> 100 µM,> 100 µM,> 100 µM,> 100 µM,–,–
CC[C@@]1(O)C(=O)OCc2c1cc1n(c2=O)Cc2c-1nc1ccccc1c2/C=N\NC(=O)C1CCCN1 (some centres undefined),1.02 µM,–,> 100 µM,> 100 µM,> 100 µM,2.67 µM,> 100 µM,10.5 µM,> 73.8 µM,21.2 µM,2.1 µM,3.96 µM,8.01 µM,–,–
CN(C(=O)Cc1ccccc1)n1cnn(CC(=O)OC(C)(C)C)c1=S,> 10 µM,> 10 µM,> 10 µM,> 10 µM,> 10 µM,> 10 µM,> 10 µM,> 10 µM,> 10 µM,> 10 µM,–,> 10 µM,> 10 µM,–,–
Cc1ccc(SC2C(=O)C3CC(OCc4ccccc4)C2(C)C3(C)C)cc1 (centres undefined),> 100 µM,–,> 100 µM,> 100 µM,> 100 µM,–,> 100 µM,> 100 µM,> 100 µM,> 100 µM,> 100 µM,> 100 µM,> 100 µM,–,–
O=C1c2ccccc2C(=O)c2cc(N=Nc3c(O)ccc4ccccc34)ccc21,> 100 µM,> 100 µM,> 100 µM,> 100 µM,> 100 µM,> 100 µM,> 100 µM,–,> 100 µM,> 100 µM,> 100 µM,> 100 µM,> 100 µM,–,–
C#C/C=C\CCCC/C=C\C#CC#CCCCC#CC#C[C@H](COS(=O)(=O)O)OS(=O)(=O)O,> 100 µM,> 100 µM,> 100 µM,> 100 µM,> 100 µM,> 100 µM,> 100 µM,> 100 µM,> 100 µM,> 100 µM,–,> 100 µM,> 100 µM,–,–
